We go through three compounds from patent US20250282757A1, “ARYL ETHER-SUBSTITUTED HETEROCYCLIC COMPOUNDS AS GLP1R AGONISTS” (MINDRANK AI LTD., priority 2021, published 2025).

The term clearance denotes a measure of how efficiently the substance is removed, as volume per time. For orientation: Cmax means the highest concentration seen after dosing. One may read the EC50 as the midpoint of the concentration-response curve. One may read the Vdss as a proportionality between amount in the body and measured concentration, not a real space.

Data set [1] can be described thus: Pharmacokinetic study in mice. It counts as in vivo, CD-1 mice. Conditions: for clearance rate compared with PF-06882961 / exposure compared with PF-06882961: mice; for half-life: read-out: T½ (converted); for Vd: read-out: Vdss. How it is done: The pharmacokinetic properties of some compounds of the present invention were evaluated in mice pharmacokinetic experiments. SPF male CD-1 mice from Beijing Vital River Laboratory Animal Technology Co., Ltd were used with 6 mice in each group. Compounds were dissolved in 10% solutol/90% saline. A single intravenous administration was given at a dose of 1 mg/kg in a volume of 1 mL/kg. A single intragastric administration was given at a dose of 5 mg/kg in a volume of 1 mL/kg. Animals were fasted overnight prior to the administration and resumed feeding 4 hours after administration, ad libitum to water. Blood was collected at 0.0830, 0.25, 0.5, 1, 2, 4, 6, 8 and 24 hours after dosing. About […] of whole blood was collected from the saphenous vein of animals and placed in an EDTA-K2 anticoagulation tube. The samples were centrifuged at 4° C. and 4200 rpm for 5 min, and the plasma was transferred into a centrifuge tube and stored at −80° C. until analysis. For plasma sample analysis, the test compounds and internal standards (Labetalol & tolbutamide & Verapamil & dexamethasone & glyburide & Celecoxib) were extracted from mice plasma by protein precipitation method with acetonitrile, and the extracts were analyzed by LC/MS/MS. The measured plasma concentration-time data of individual animals were analyzed with the non-compartmental model of Phoenix WinNonlin 7.0 (Pharsight, USA) software, and the pharmacokinetic parameters of mice were obtained as follows: maximum (peak) plasma drug concentration Cmax; Peak time Tmax; half-life T1/2 and area under the plasma concentration-time curve extrapolated to infinity AUC0-inf.

The target of another data set is GLP-1R (Homo sapiens, UniProt P43220). Description: Agonist activity on GLP-1R, HTRF cAMP detection in stably transfected GLP-1R/HEK293 cells. Particulars: for EC50: 30 min incubation; for Max activity: relative to top concentration of reference GLP-1(7-37). It counts as cell-based.
Data set [2] in a line: Pharmacokinetic study in monkeys. It counts as in vivo, cynomolgus monkeys. Conditions: for half-life: read-out: T½ (converted); for Vd: read-out: Vdss; for clearance rate compared with PF-06882961 / exposure compared with PF-06882961 / half-life compared with PF-06882961: monkeys. As to the method: The pharmacokinetic properties of compounds of the present invention were evaluated in monkey pharmacokinetic experiments with 3 male Non-naive cynomolgus monkeys per group. Compounds were dissolved in 10% solutol/90% saline. For single intravenous administration, the dose was 1 mg/kg, and the administration volume was 1 mL/kg. For single intragastric administration, the dose was 5 mg/kg, and the administration volume was 1 mL/kg. Animals were fasted overnight with free water before the experiment and resumed feeding 4 hours after administration. Blood was collected at 0.0830, 0.25, 0.5, 1, 2, 4, 6, 8 and 24 hours after dosing. About 0.4 mL of whole blood was collected from the animal's forearm vein and placed in an EDTA-K2 anticoagulant tube. The samples were centrifuged at 4° C. and 4200 rpm for 5 min, and the plasma was transferred to a centrifuge tube and stored at −80° C. until analysis. For plasma sample analysis, the test compounds and internal standards (Labetalol & tolbutamide & Verapamil & dexamethasone & glyburide & Celecoxib) were extracted from monkey plasma by protein precipitation method with acetonitrile, and the extracts were analyzed by LC/MS/MS. Measured plasma concentration-time data in individual animals were analyzed using the non-compartmental model of Phoenix WinNonlin 7.0 (Pharsight, USA) software to obtain the following pharmacokinetic parameters: maximum (peak) plasma drug concentration Cmax; time to peak Tmax; Half-life T1/2 and area under the plasma concentration-time curve extrapolated to infinity AUC0-inf.

For another data set, the system named is cynomolgus monkeys. The data set can be described thus: Intravenous glucose tolerance (IVGTT) experiment in cynomolgus monkey. Particulars: for effect on blood glucose compared with PF-06882961: 100 mg/kg po, IVGTT. It counts as in vivo. As to the method: The compounds were dissolved in 10% Solutol HS15+90% Saline by vortex ultrasound. Vehicle was 10% Solutol HS15+90% Saline.
Male cynomolgus monkeys, 10-15 years old, weighing 6-13 kg. Healthy animals were selected for efficacy studies according to alanine aminotransferase (ALT), aspartate aminotransferase (AST), triglyceride (TG), total cholesterol (TC), high density lipoprotein (HDL), low density lipoprotein (LDL), glycosylated hemoglobin (HbA1c), body weight (BW).
After 1 week of acclimation, the IVGTT baseline before administration was measured, and the animals were grouped according to the insulin and blood glucose results of the IVGTT. The detailed information of treatment was as follows:
IVGTT was started after 2 hours post of compound dosing. Blood were collected-at −15 min, 0 min (before sugar administration), and 2, 5, 7, 10, 20, and 30 min after sugar administration. And the blood glucose level were measured.
Data was analyzed by Graphpad Prism 6 and the statistical method was one-way ANOVA Dunnett's test. Compared with the vehicle group, p<0.05 was considered significant difference. * means p<0.05, ** means p<0.01, *** means p<0.001.

A further data set relates to h-GLP1-R C57BL6J mice. Description: Intraperitoneal glucose tolerance (IPGTT) test in h-GLP1-R C57BL6J mice. It counts as in vivo. As to the method:
The compounds to be tested were dissolved in 10% Solutol HS15+90% Saline, and vortexed by ultrasonic to dissolve.
Male SPF h-GLP1-R C57BL6J mice, 6-9 weeks old, weighing 20 g-25 g.
Upon arrival, animals were acclimated for 7 days before experiments. The body weight and random blood sugar of the animals were measured one day before administration. Animals were divided into 4 groups based on body weight and random blood glucose.
Mice were overnight fasted before IPGTT. Baseline fasting blood glucose and insulin level were measured before vehicle or compound dosing. 30 min post of compound dosing, glucose were injected intraperitoneally (2 g/kg, 10 ml/kg). Blood glucose levels were measured at −30, 0, 15, 30, 60, 120 min. Plasma 15 ul were collected at 0 and 15 min for insulin analysis by Rat/Mouse Insulin Elisa Kit.
AUC0-120min was the area under the blood glucose-time curve. Insulin change was the difference between 15 min and 0 min plasma insulin concentration. Statistical analysis of data was performed with Graphpad Prism 6, and the statistical method was one-way ANOVA Dunnett test. Compared with the vehicle group, p<0.05 was considered a significant difference. * means p<0.05, ** means p<0.01, *** means p<0.001.

Where [3] appears, read: mouse, plasma, male CD-1 mice, 1 mg/kg iv.
[4] abbreviates: mouse, plasma, male CD-1 mice, 1 mg/kg iv, read-out: AUC0-inf.
[5] abbreviates: mouse, plasma, male CD-1 mice, 5 mg/kg po, read-out: AUC0-inf.
The mark [6] stands for this setting: mouse, plasma, male CD-1 mice, 5 mg/kg po, read-out: Cmax.
The mark [7] stands for this setting: mouse, plasma, male CD-1 mice, 5 mg/kg po.
[8] abbreviates: cynomolgus monkey, plasma, male cynomolgus monkeys, 1 mg/kg iv.
Where [9] appears, read: cynomolgus monkey, plasma, male cynomolgus monkeys, 1 mg/kg iv, read-out: AUC0-inf.
Where [10] appears, read: cynomolgus monkey, plasma, male cynomolgus monkeys, 5 mg/kg po, read-out: AUC0-inf.
[11] abbreviates: cynomolgus monkey, plasma, male cynomolgus monkeys, 5 mg/kg po, read-out: Cmax.
Where [12] appears, read: cynomolgus monkey, plasma, male cynomolgus monkeys, 5 mg/kg po.
[13] abbreviates: male cynomolgus monkeys, 5 mg/kg po.
The mark [14] stands for this setting: single oral dose of 100 mg/kg, IVGTT 2 hours after dosing.
Where [15] appears, read: male cynomolgus monkeys, 1 mg/kg iv.

Sequence of GLP-1R (P43220 24-463): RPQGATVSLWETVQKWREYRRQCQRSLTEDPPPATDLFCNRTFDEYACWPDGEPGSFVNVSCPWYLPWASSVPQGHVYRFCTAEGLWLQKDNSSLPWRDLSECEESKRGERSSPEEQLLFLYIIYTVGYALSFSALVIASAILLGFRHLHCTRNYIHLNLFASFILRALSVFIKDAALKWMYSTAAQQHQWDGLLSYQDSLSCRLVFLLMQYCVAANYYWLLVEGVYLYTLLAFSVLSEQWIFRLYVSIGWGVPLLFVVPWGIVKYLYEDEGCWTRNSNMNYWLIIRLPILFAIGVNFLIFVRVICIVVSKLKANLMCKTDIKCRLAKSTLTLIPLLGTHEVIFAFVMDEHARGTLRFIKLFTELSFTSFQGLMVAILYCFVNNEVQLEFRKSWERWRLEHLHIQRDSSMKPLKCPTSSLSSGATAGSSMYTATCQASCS

Regarding `O=C(O)c1ccc2nc(CN3CCC(Oc4cccc(COc5ccc(Cl)cc5F)n4)CC3)n(C[C@@H]3CCO3)c2c1` [Compound 49, (S)-2-((4-((6-((4-chloro-2-fluorophenoxy)methyl)pyridin-2-yl)oxy)piperidin-1-yl)methyl)-1-(oxetan-2-ylmethyl)-1H-benzo[d]imidazole-6-carboxylic acid], the F in data set [1] (male CD-1 mice, 5 mg/kg po) came out at 20.7%; in data set [2] (setting [13]), 10.4%. The “clearance rate compared with PF-06882961” value in data set [1] and in data set [2] was “lower clearance rates” in each case. In addition, the “exposure compared with PF-06882961” value in data set [1] and in data set [2] was “higher exposure” in each case. The values for the clearance in data set [1] (setting [3]) and in data set [2] (setting [8]) were 12 mL/min/kg and 7.26 mL/min/kg, respectively. For the same compound, the AUC(0-inf) in data set [1] (setting [4]) turned out to be 1350 ng·h/mL; in data set [1] (setting [5]), 1760 ng·h/mL; in data set [2] (setting [9]), 2380 ng·h/mL; in data set [2] (setting [10]), 1240 ng·h/mL. The half-life in data set [1] (setting [3]) is 1 h; in data set [1] (setting [7]), 3.2 h; in data set [2] (setting [8]) it was 1.34 h; in data set [2] (setting [12]) it was 4.01 h. For the same compound, the Vd stood at 1 L/kg in data set [1] (setting [3]) and 0.29 L/kg in data set [2] (setting [8]). Further, the results for the Cmax in data set [1] (setting [6]) and in data set [2] (setting [11]) were 515 ng/mL and 235 ng/mL, respectively. The EC50 on GLP-1R came out at 0.193 nM. Besides, at GLP-1R, the Max activity came to 129.3%. For the same compound, the “half-life compared with PF-06882961” value in data set [2] was “greater”. Also, the “blood glucose level in IVGTT” value is “significant hypoglycemic effect” with cynomolgus monkeys (60 mg/kg po dose group) and “significantly lower the blood glucose level” in the data set with cynomolgus monkeys (setting [14]). The “effect on blood glucose compared with PF-06882961” value with cynomolgus monkeys was “slightly more effective”.

Take `N#Cc1ccc(OCc2cccc(OC3CCN(Cc4nc5ccc(C(=O)O)cc5n4C[C@@H]4CCO4)CC3)n2)c(F)c1` [Compound 55, (S)-2-((4-((6-((4-cyano-2-fluorophenoxy)methyl)pyridin-2-yl)oxy)piperidin-1-yl)methyl)-1-(oxetan-2-ylmethyl)-1H-benzo[d]imidazole-6-carboxylic acid]: the F in data set [1] (male CD-1 mice, 5 mg/kg po) was found to be 32.7%; in data set [2] (setting [13]), 8.6%. The “clearance rate compared with PF-06882961” value in data set [1] and in data set [2] was “lower clearance rates” in each case. In addition, the “exposure compared with PF-06882961” value in data set [1] and in data set [2] was “higher exposure” in each case. The clearance in data set [1] (setting [3]) is 26.2 mL/min/kg; in data set [2] (setting [8]), 12 mL/min/kg. Moreover, the AUC(0-inf) in data set [1] (setting [4]) is 637 ng·h/mL; in data set [1] (setting [5]) it was 1040 ng·h/mL; in data set [2] (setting [9]) it was 1420 ng·h/mL; in data set [2] (setting [10]), 614 ng·h/mL. Further, the half-life is 1.5 h in data set [1] (setting [3]), 1.7 h in data set [1] (setting [7]), 2.2 h in data set [2] (setting [8]) and 5.4 h in data set [2] (setting [12]). The values for the Vd in data set [1] (setting [3]) and in data set [2] (setting [8]) were 1.3 L/kg and 0.4 L/kg, respectively. Besides, the Cmax in data set [1] (setting [6]) was 483 ng/mL; in data set [2] (setting [11]), 214 ng/mL. A half-maximal response at GLP-1R (EC50) required 0.149 nM. In addition, the Max activity at GLP-1R turned out to be 111.5%. Moreover, the “half-life compared with PF-06882961” value in data set [2] is given as “greater”. The “effect on blood glucose compared with PF-06882961” value with cynomolgus monkeys was “equivalent”. For the same compound, in the data set on cynomolgus monkeys (setting [14]), the “blood glucose level in IVGTT” value is “significantly lower the blood glucose level”. Moreover, in the data set with h-GLP1-R C57BL6J mice (0.3 mpk po), the “Insulin change (15 min minus 0 min plasma insulin)” value was “significantly increase insulin secretion”. Moreover, the “AUC0-120min (area under the blood glucose-time curve)” value in the data set on h-GLP1-R C57BL6J mice (0.3 mpk po, compared with the vehicle group) is given as “significant difference compared with the vehicle group”. Also, the “blood glucose during IPGTT” value with h-GLP1-R C57BL6J mice (single oral dose 0.3 mg/kg, glucose 2 g/kg ip 30 min after dosing) was “significantly reduced the blood glucose”.

In data set [1] (male CD-1 mice, 1 mg/kg iv), `N#Cc1ccc(COc2cccc(C3CCN(Cc4nc5ccc(C(=O)O)cc5n4C[C@@H]4CCO4)CC3)n2)c(F)c1` [PF-06882961, reference compound] gave an AUC(0-inf) of 370 ng·h/mL, a Cl of 45.1 mL/min/kg, a T½ of 0.3 h and a Vdss of 1 L/kg. In data set [1] (male CD-1 mice, 5 mg/kg po), the AUC(0-inf) is 366 ng·h/mL, the Cmax came out at 299 ng/mL, the F was found to be 19.8% and the T½ is recorded as 2.0 h. In data set [2] (setting [15]), this compound came in with an AUC(0-inf) of 1167 ng·h/mL, a Cl of 14.4 mL/min/kg, a T½ of 1.1 h and a Vdss of 0.3 L/kg. Besides, in data set [2] (setting [13]), the AUC(0-inf) came to 344 ng·h/mL, the Cmax is reported as 58.8 ng/mL, the F turned out to be 5.9% and the T½ is reported as 2.8 h. Moreover, the “blood glucose level in IVGTT” value with cynomolgus monkeys (setting [14]) is recorded as “significantly lower the blood glucose level”.
